ChEMBL document CHEMBL5154808, “Novel β-Hairpin Antimicrobial Peptides Containing the β-Turn Sequence of -RRRF- Having High Cell Selectivity and Low Incidence of Drug Resistance” (J Med Chem, 2022)
Active and inactive are the calls of the source. No cut-off for these calls is given here.

Tests used:
Staphylococcus aureus [1] = assay: Antibacterial activity against Staphylococcus aureus ATCC 25923 infected BALB/c mouse assessed as reduction in hepatic inflammatory cell infiltration at 5 to 10 mg/kg, ip measured after 24 hrs by hematoxylin and eosin staining based assay; assay type: functional, organism-based; conditions: dose 5-10 mg/kg
Staphylococcus aureus [2] = assay: Antibacterial activity against Staphylococcus aureus ATCC 25923 infected in BALB/c mouse assessed as reduction in bacterial load in lung at 5 to 10 mg/kg, ip measured after 4 to 12 hrs (reference value: 5.6 x 10^6 CFU/g); assay type: functional; conditions: dose 5-10 mg/kg, time 4-12 hrs
Staphylococcus aureus [3] = assay: Antimicrobial activity against Staphylococcus aureus ATCC 25923 assessed as reduction of bacterial growth incubated for 18 hrs by CLSI protocol based broth microdilution method; assay type: functional
Bacillus subtilis = assay: Antimicrobial activity against Bacillus subtilis ATCC 23857 assessed as reduction of bacterial growth incubated for 18 hrs by CLSI protocol based broth microdilution method; assay type: functional
Enterococcus faecalis = assay: Antimicrobial activity against Enterococcus faecalis ATCC 29212 assessed as reduction of bacterial growth incubated for 18 hrs by CLSI protocol based broth microdilution method; assay type: functional
Klebsiella pneumoniae = assay: Antimicrobial activity against Klebsiella pneumoniae ATCC 700603 assessed as reduction of bacterial growth incubated for 18 hrs by CLSI protocol based broth microdilution method; assay type: functional
Escherichia coli [4] = assay: Antimicrobial activity against Escherichia coli ATCC 25922 assessed as reduction of bacterial growth incubated for 18 hrs by CLSI protocol based broth microdilution method; assay type: functional
Pseudomonas aeruginosa = assay: Antimicrobial activity against Pseudomonas aeruginosa ATCC 27853 assessed as reduction of bacterial growth incubated for 18 hrs by CLSI protocol based broth microdilution method; assay type: functional
[5] = Cytotoxicity against human HK-2 cells assessed as reduction in cell viability incubated for 1 hr by resazurin based microplate reader method; assay type: toxicity
Escherichia coli [6] = assay: Antimicrobial activity against Escherichia coli ATCC 25922 assessed as fold change in MIC incubated for 18 hrs in presence of 4.5 mM KCl by CLSI protocol based broth microdilution method relative to control; assay type: functional
Escherichia coli [7] = assay: Antimicrobial activity against Escherichia coli ATCC 25922 assessed as fold change in MIC incubated for 18 hrs in presence of 1 mM MgCl2 by CLSI protocol based broth microdilution method relative to control; assay type: functional
Escherichia coli [8] = assay: Antimicrobial activity against Escherichia coli ATCC 25922 assessed as fold change in MIC incubated for 18 hrs in presence of 10% serum by CLSI protocol based broth microdilution method relative to control; assay type: functional
Staphylococcus aureus [9] = assay: Antimicrobial activity against Staphylococcus aureus ATCC 25923 assessed as assessed as fold change in MIC incubated for 18 hrs in presence of 4 uM FeCl3 by CLSI protocol based broth microdilution method relative to control; assay type: functional
Staphylococcus aureus [10] = assay: Antimicrobial activity against Staphylococcus aureus ATCC 25923 assessed as fold change in MIC incubated for 18 hrs in presence of 1 mM MgCl2 by CLSI protocol based broth microdilution method relative to control; assay type: functional
Staphylococcus aureus [11] = assay: Antimicrobial activity against Staphylococcus aureus ATCC 25923 assessed as fold change in MIC incubated for 18 hrs in presence of 4.5 mM KCl by CLSI protocol based broth microdilution method relative to control; assay type: functional
Staphylococcus aureus [12] = assay: Antimicrobial activity against Staphylococcus aureus ATCC 25923 assessed as fold change in MICincubated for 18 hrs in presence of 150 mM NaCl by CLSI protocol based broth microdilution method relative to control; assay type: functional
Escherichia coli [13] = assay: Antimicrobial activity against Escherichia coli ATCC 25922 assessed as reduction of bacterial growth at 2 times MIC incubated for 18 hrs in presence of chymotrypsin by CLSI protocol based broth microdilution method; assay type: functional, organism-based
Staphylococcus aureus [14] = assay: Antimicrobial activity against Staphylococcus aureus ATCC 25923 assessed as reduction of bacterial growth at 2 times MIC incubated for 18 hrs in presence of chymotrypsin by CLSI protocol based broth microdilution method; assay type: functional, organism-based
[15] = Stability in mouse serum assessed as drug degradation by measuring retention time at 10 mM measured upto 360 mins by RP-HPLC analysis; assay type: ADME, cell-free; conditions: 6 h, 10000 µM
Staphylococcus aureus [16] = assay: Antimicrobial activity against rifampicin-resistant Staphylococcus aureus ATCC 25923; assay type: functional
Escherichia coli [17] = assay: Antimicrobial activity against rifampicin-resistant Escherichia coli ATCC 25922; assay type: functional
Staphylococcus aureus [18] = assay: Antimicrobial activity against kanamycin-resistant Staphylococcus aureus ATCC 25923; assay type: functional
Escherichia coli [19] = assay: Synergistic antibacterial activity against meropenem-resistant Escherichia coli ATCC 25922 assessed as fractional inhibitory concentration index incubated for 18 hrs in presence of meropenem by checker board assay; assay type: functional
Escherichia coli [20] = assay: Synergistic antibacterial activity against Escherichia coli ATCC 25922 assessed as fractional inhibitory concentration index incubated for 18 hrs in presence of polymyxin B by checker board assay; assay type: functional
Escherichia coli [21] = assay: Synergistic antibacterial activity against Escherichia coli ATCC 25922 assessed as fractional inhibitory concentration index incubated for 18 hrs in presence of rifampicin by checker board assay; assay type: functional
Staphylococcus aureus [22] = assay: Synergistic antibacterial activity against Staphylococcus aureus ATCC 25923 assessed as fractional inhibitory concentration index incubated for 18 hrs in presence of kanamycin by checker board assay; assay type: functional
Escherichia coli [23] = assay: Antimicrobial activity against Escherichia coli ATCC 25922 assessed as adherence to cell membrane measured after 30 mins by SEM analysis; assay type: functional, organism-based
Escherichia coli [24] = assay: Antimicrobial activity against Escherichia coli ATCC 25922 assessed as morphological changes measured after 4 hrs by SEM analysis; assay type: functional, organism-based
Staphylococcus aureus [25] = assay: Antimicrobial activity against Staphylococcus aureus ATCC 25923 assessed as disruption of biofilm formation measured after 2 hrs by SEM analysis; assay type: functional, organism-based
Staphylococcus aureus [26] = assay: Bactericidal activity against Staphylococcus aureus ATCC 25923 assessed as time required to kill bacteria at 2 times MIC by time-killing assay; assay type: functional
Lipopolysaccharide (LPS) = assay: Binding affinity to LPS (unknown origin) assessed as reduction in bactericidal activity against Escherichia coli ATCC 25922 at 2 times MIC incubated for 2 hrs in presence of 32 ug/ml of LPS by competitive binding assay
Cell membrane [27] = assay: Induction of inner membrane permeabilization in Escherichia coli ML-35 ATCC 43587 at 1 to 4 times MIC by ONPG based assay
Cell membrane [28] = assay: Induction of cytoplasmic membrane depolarization in Staphylococcus aureus ATCC 25923 assessed as increase in fluorescence intensity at 1 to 4 times MIC measured after 1 min by DiSC3-5 dye based fluorescence method; assay type: subcellular; conditions: DDE = dose-dependent effect
Cell membrane [29] = assay: Induction of cytoplasmic membrane depolarization in […] assessed as increase in fluorescence intensity at 1 to 4 times MIC measured after 1 min by DiSC3-5 dye based fluorescence method; assay type: subcellular
Cell membrane [30] = assay: Induction of cytoplasmic membrane depolarization in Pseudomonas aeruginosa ATCC 27853 assessed as increase in fluorescence intensity at 1 to 4 times MIC measured after 1 min by DiSC3-5 dye based fluorescence method; assay type: subcellular
[31] = Acute toxicity in ip dosed Kunming mouse assessed as lethal dose; assay type: organism-based; conditions: in vivo

Substance | Activity (Staphylococcus aureus [1]) | Activity (Staphylococcus aureus [2]) [CFU/g] | MIC (Staphylococcus aureus [3]) [µM] | MIC (Bacillus subtilis) [µM] | MIC (Enterococcus faecalis) [µM] | MIC (Klebsiella pneumoniae) [µM] | MIC (Escherichia coli [4]) [µM] | MIC (Pseudomonas aeruginosa) [µM] | CC50 at 1 h [5] [µM] | fold change (FC) (Escherichia coli [6]) | fold change (FC) (Escherichia coli [7]) | fold change (FC) (Escherichia coli [8]) | fold change (FC) (Staphylococcus aureus [9]) | fold change (FC) (Staphylococcus aureus [10]) | fold change (FC) (Staphylococcus aureus [11]) | fold change (FC) (Staphylococcus aureus [12]) | Activity (Escherichia coli [13]) | Activity (Staphylococcus aureus [14]) | Retention_time [15] [min] | MIC (Staphylococcus aureus [16]) [µM] | other results
H-KWKWKRRRFKWKWK-NH2 | Active | 0 | 8 | 4 | 16 | 16 | 8 | 4 | > 128 | 1 | 1 | 1 | 1 | 1 | 1 | 2 | Active | Active | 11.505 | 4 | MIC (Escherichia coli [17]): 4 µM; MIC (Staphylococcus aureus [18]): 4 µM; fractional inhibitory concentration index (FICI) (Escherichia coli [19]): 1.25; fractional inhibitory concentration index (FICI) (Escherichia coli [20]): 0.375; fractional inhibitory concentration index (FICI) (Escherichia coli [21]): 0.625; fractional inhibitory concentration index (FICI) (Staphylococcus aureus [22]): 0.5; Activity (Escherichia coli [23]): Active; Activity (Escherichia coli [24]): Active; Activity (Staphylococcus aureus [25]): Active; Time (Staphylococcus aureus [26]): 90 min; Activity (Lipopolysaccharide (LPS)): Active; Activity (Cell membrane [27]): Active; Activity (Cell membrane [28]): Dde; Activity (Cell membrane [29]): Active; Activity (Cell membrane [30]): Active; LD50 [31]: 62.2 mg/kg
H-RIRIRRRRFRIRIR-NH2 | Active | 0 | 4 | 2 | 8 | 8 | 4 | 4 | 65.2 | 2 | 1 | 1 | 1 | 2 | 1 | 2 | Active | Active | 10.623 | 4 | MIC (Escherichia coli [17]): 4 µM; MIC (Staphylococcus aureus [18]): 4 µM; fractional inhibitory concentration index (FICI) (Escherichia coli [19]): 0.75; fractional inhibitory concentration index (FICI) (Escherichia coli [20]): 0.5; fractional inhibitory concentration index (FICI) (Escherichia coli [21]): 1; fractional inhibitory concentration index (FICI) (Staphylococcus aureus [22]): 0.5625; Activity (Escherichia coli [23]): Active; Activity (Escherichia coli [24]): Active; Activity (Staphylococcus aureus [25]): Active; Time (Staphylococcus aureus [26]): 30 min; Activity (Lipopolysaccharide (LPS)): Active; Activity (Cell membrane [27]): Active; Activity (Cell membrane [28]): Dde; Activity (Cell membrane [29]): Active; Activity (Cell membrane [30]): Active; LD50 [31]: 77.1 mg/kg
